Consider nine molecules from paper PMC3060082 (Journal of medicinal chemistry, 2010).

Assay [1] concerns NAADP receptor. Kind of assay: Ca2+ release from Ca2+ loaded sea urchin egg homogenates. The assay is classed as biochemical, sea urchin (Strongylocentrotus purpuratus). The following applies: for potency for Ca2+ release compared to NAADP (fold less potent): text summary of concentration response curves, Figure 2 / Table 3; for Fold increase in EC50: relative to NAADP (1); for concentration as low as which calcium-ion release is induced: Figure 1 traces; for amount of calcium release at saturating concentrations: compared with NAADP.

The subject of assay [2] is NAADP receptor. Kind of assay: Competition ligand binding with [32P]NAADP in sea urchin egg homogenate. The following applies: assay not specified.
The subject of assay [3] is NAADP receptor. Format: biochemical, sea urchin. The following applies: 9 min pretreatment at 1 nM or higher (subthreshold concentration).

For the molecule `[N-]=[N+]=Nc1cc(C(=O)[O-])c[n+]([C@H]2O[C@@H](COP(=O)(O)OP(=O)(O)OC[C@H]3O[C@@H](n4cnc5c(N)ncnc54)[C@H](OP(=O)(O)O)[C@@H]3O)[C@H](O)[C@@H]2O)c1` [compound 24, 5-azido-NAADP], in the assay on NAADP receptor [1], the “potency for Ca2+ release compared to NAADP (fold less potent)” value (“potency … (fold less potent)” below) lay within 10 to 100 fold.

On to `Nc1ncnc2c1ncn2[C@@H]1O[C@H](COP(=O)(O)OP(=O)(O)OC[C@@H]2O[C@H]([n+]3ccc(-c4ccccc4)c(C(=O)[O-])c3)[C@@H](O)[C@H]2O)[C@@H](O)[C@H]1OP(=O)(O)O` [compound 19, 4-phenyl-NAADP], for which the “Fold increase in EC50” value in the assay with NAADP receptor [1] is listed as > 50,000 fold.

For the molecule `Cc1cc(C(=O)[O-])c[n+]([C@H]2O[C@@H](COP(=O)(O)OP(=O)(O)OC[C@H]3O[C@@H](n4cnc5c(N)ncnc54)[C@H](OP(=O)(O)O)[C@@H]3O)[C@H](O)[C@@H]2O)c1` [compound 21, 5-methyl-NAADP], in the assay with NAADP receptor [1], the “concentration as low as which calcium-ion release is induced” value is listed as 2 nM, the “amount of calcium release at saturating concentrations” value was “same amount of calcium release as did the full agonist NAADP” and the “potency … (fold less potent)” value is recorded as “approximately equipotent with NAADP”. For the same molecule, in the assay on NAADP receptor [2], the “loss of potency relative to NAADP” value was “only slightly less potent than is NAADP itself”. Besides, in the assay on NAADP receptor [3], the “receptor desensitization to 1 μM NAADP after pretreatment” value was “same characteristic receptor desensitization as does NAADP itself”.

In the case of `Cc1cc[n+]([C@H]2O[C@@H](COP(=O)(O)OP(=O)(O)OC[C@H]3O[C@@H](n4cnc5c(N)ncnc54)[C@H](OP(=O)(O)O)[C@@H]3O)[C@H](O)[C@@H]2O)cc1C(=O)[O-]` [compound 17, 4-methyl-NAADP], in the assay on NAADP receptor [1] (Figure 1), the “potency for Ca2+ release compared with the 5-isomer 21” value is “significantly less potent”. The “potency … (fold less potent)” value in the assay on NAADP receptor [1] was “two hundred to two thousand fold less potent”. The “loss of potency relative to NAADP” value with NAADP receptor [2] was in the range of 100 to 200 fold.

Regarding `CCCCc1cc[n+]([C@H]2O[C@@H](COP(=O)(O)OP(=O)(O)OC[C@H]3O[C@@H](n4cnc5c(N)ncnc54)[C@H](OP(=O)(O)O)[C@@H]3O)[C@H](O)[C@@H]2O)cc1C(=O)[O-]` [compound 18, 4-n-butyl-NAADP], in the assay with NAADP receptor [1], the “Fold increase in EC50” value is reported as > 50,000 fold.

Consider `CCc1cc(C(=O)[O-])c[n+]([C@H]2O[C@@H](COP(=O)(O)OP(=O)(O)OC[C@H]3O[C@@H](n4cnc5c(N)ncnc54)[C@H](OP(=O)(O)O)[C@@H]3O)[C@H](O)[C@@H]2O)c1` [compound 23, 5-ethyl-NAADP], for which, in the assay on NAADP receptor [1], the “potency … (fold less potent)” value lay within 10 to 100 fold. The “loss of potency relative to NAADP” value in the assay on NAADP receptor [2] came to 20 fold.

For the molecule `Nc1ncnc2c1ncn2[C@@H]1O[C@H](COP(=O)(O)OP(=O)(O)OC[C@@H]2O[C@H]([n+]3cc(C(=O)[O-])cc(C(=O)O)c3)[C@@H](O)[C@H]2O)[C@@H](O)[C@H]1OP(=O)(O)O` [compound 22, 5-carboxy-NAADP], the “Fold increase in EC50” value with NAADP receptor [1] was > 50,000 fold.

In the case of `Nc1cc(C(=O)[O-])c[n+]([C@H]2O[C@@H](COP(=O)(O)OP(=O)(O)OC[C@H]3O[C@@H](n4cnc5c(N)ncnc54)[C@H](OP(=O)(O)O)[C@@H]3O)[C@H](O)[C@@H]2O)c1` [compound 20, 5-amino-NAADP], in the assay on NAADP receptor [1], the “concentration as low as which calcium-ion release is induced” value stood at 2 nM, the “amount of calcium release at saturating concentrations” value was “same amount of calcium release as did the full agonist NAADP” and the “potency … (fold less potent)” value was “approximately equipotent with NAADP”. Moreover, in the assay with NAADP receptor [2], the “loss of potency relative to NAADP” value is on record as “only slightly less potent than is NAADP itself”.

Consider `Nc1cc[n+]([C@H]2O[C@@H](COP(=O)(O)OP(=O)(O)OC[C@H]3O[C@@H](n4cnc5c(N)ncnc54)[C@H](OP(=O)(O)O)[C@@H]3O)[C@H](O)[C@@H]2O)cc1C(=O)[O-]` [compound 16, 4-amino-NAADP], for which the “potency … (fold less potent)” value in the assay with NAADP receptor [1] is given as “two hundred to two thousand fold less potent”. Also, the “loss of potency relative to NAADP” value in the assay on NAADP receptor [2] lay within 100 to 200 fold.
